Reference: paper PMC10733463, “Berberine-microbiota interplay: orchestrating gut health through modulation of the gut microbiota and metabolic transformation into bioactive metabolites” (Frontiers in Pharmacology, 2023)

Key:
[1] = tested on: Anaerostipes butyraticus (35–7); conditions: 35-7, chicken, 10 µg/mL, pH 6
Method: (§1) Six strains were tested for their ability to convert berberine into berberine-demethylated metabolites. […] Strains were sub-cultured overnight in M2GSC medium pH 6. The next day, caecal content from a 3-week-old broiler chicken was sampled in anaerobic conditions and 1:1,000 diluted in M2GSC medium pH 6 containing 10 μg/mL berberine. Caecal mixtures were enriched with 1:100 diluted overnight cultures of single bacteria, or with M2GSC (control), and incubated in a 24-well plate, for 48 h. […] Samples were collected and processed as described before. Each bacterial strain was tested in triplicate at 37°C–40°C under anaerobic conditions.
(§2) The UPLC instrument consisted of an Acquity H-Class Quaternary Solvent Manager and an Acquity FTN Sample Manager (Waters, Berchem, Belgium). For chromatographic separation, an Acquity UPLC® HSS T3 column (1.8 µm, 100 mm × 2.1 mm i.d.) was used, protected by a precolumn of the same type (VanGuardTM, 5 mm × 2.1 mm i.d.), both from Waters. […] The column temperature was maintained at 25°C. The autosampler temperature was set at 10°C. The UPLC effluent was sent from 1.2 min to 9.5 min by use of a divert valve to a Xevo TQ-S® triple quadrupole mass spectrometer from Water, equipped with an ESI ion source operating in the positive ionization mode from. The UPLC-MS/MS analysis was run under control of MassLynx software (v4.1), which was used for subsequent data processing as well. For the injection of 1/5 diluted intestinal content samples (see section Preparation of intestinal content samples (ileum and caecum)), the divert valve was used in addition from 7.1 min to 8.4 min to deviate the high amount of berberine and associated IS berberine-d6 eluting in that time window from the UPLC column directly to the waste, rather than to the MS detector to avoid oversaturation of the instrument, influencing subsequent sample extract injections at well. Operating conditions for the ESI source used in the positive ionization mode were optimized by direct infusion of all individual components in combination with the mobile phase at 50% A/50% B delivered at a flow rate of 0.3 mL/min. The following tune parameters were used for detection of all components: capillary voltage, 3 kV, cone voltage, 10 V, source offset, 50 V, source temperature, 150°C, desolvation temperature, 500°C, desolvation gas flow, 800 L/h, cone gas flow, 150 L/h, collision gas flow, 0.2 mL/min, ion energy 1 and 2, 0.5, LM 1 and LM 2 resolution, 3, HM 1 and HM 2 resolution, 15. Components were detected in MS/MS mode using component specific MRM (Multiple Reaction Monitoring) transitions (Supplementary Table S1). Since a commercial standard of thalifendine was not available, MS/MS detection parameters and calibration of berberrubine were used for the detection and quantification of thalifendine, which is a reasonable approach, since both compounds are isomers. No commercial reference standards were available for phase II metabolites, therefore “calculated” MRM transitions were defined as follows: [M + -Gluc] > M+ for glucuronide forms and [M + -SO3] > M+ for sulfate forms, where the loss of glucuronic acid or sulfate corresponded to a mass shift of 176 Da or 80 Da respectively. Phase II metabolites were quantified relatively using the berberine calibration curve ([Wang et al., 2017a]; [Kwon et al., 2020]).

B. coccoides (DSM 935) = conditions: DSM 935, chicken, 10 µg/mL, pH 6
Method: as §1, §2

[2] = tested on: Blautia hansenii (DSM 20583); conditions: DSM 20583, chicken, 10 µg/mL, pH 6
Method: as §1, §2

[3] = tested on: Blautia hydrogenotrophica (DSM 10507); conditions: DSM 10507, chicken, 10 µg/mL, pH 6
Method: as §1, §2

Blautia luti (DSM 14534) = conditions: DSM 14534, chicken, 10 µg/mL, pH 6
Method: as §1, §2

[4] = tested on: Eubacterium limosum (LMG 28910); conditions: LMG 28910, chicken, 10 µg/mL, pH 6
Method: as §1, §2

Compound | Log2(fold change) of metabolite response at 48 h, culture with bacteria over control (berberine-medium + microbiota) [1] | Log2(fold change) of metabolite response at 48 h, culture with bacteria over control (berberine-medium + microbiota) (B. coccoides (DSM 935)) | Log2(fold change) of metabolite response at 48 h, culture with bacteria over control (berberine-medium + microbiota) [2] | Log2(fold change) of metabolite response at 48 h, culture with bacteria over control (berberine-medium + microbiota) [3] | Log2(fold change) of metabolite response at 48 h, culture with bacteria over control (berberine-medium + microbiota) (Blautia luti (DSM 14534)) | Log2(fold change) of metabolite response at 48 h, culture with bacteria over control (berberine-medium + microbiota) [4]
COc1ccc2cc3[n+](cc2c1O)CCc1cc2c(cc1-3)OCO2 [Berberrubine, berberrubine chloride] | 0.03 | -1.64 | -0.15 | -0.10 | -1.71 | -0.40
COc1cc2c(cc1O)CC[n+]1cc3c(OC)c(OC)ccc3cc1-2 [Jatrorrhizine, Jatrorrhizine chloride] | -0.05 | -0.23 | -0.06 | 0.03 | -0.36 | 0.11
